What all share (type): in vivo, soybean
Assay [1] deals with mutant W19. The assay can be described thus: Test A postemergence herbicide spray, greenhouse pots. The source says:
(§1) In the first post-emergence test, two true-breeding resistant mutant lines, W19 and W20, were compared to previously isolated tolerant mutants and wild-type Williams 82. Eighteen pots (20 cm diameter) of each soybean line (2 seeds per pot) were planted using a standard sterile potting mix. When the seedlings reached the second trifoliolate stage, plants were thinned back to one plant per pot. Each pot was then sprayed with a specific herbicide treatment using a conveyor belt spray apparatus to emulate field application. The nine different herbicide treatments included one rate (8 g/ha) of Compound 1 and two rates (8 and 32 g/ha) each of four other sulfonylurea herbicides (Compounds 2,3,7 and 8) (see Table VI) using a factorial treatment design with 2 replications.
(§2) In both postemergence tests, plants were returned to the greenhouse after treatment and provided with ample light, moisture, and nutrients to support healthy plant growth. Two to three ratings per pot were recorded over a three-week period and averaged to obtain a single value for each pot For each herbicide, analysis of variance on injury ratings was performed separately. Fisher's least significant difference (LSD) was used to determine the significance of line mean differences at each herbicide rate using the 95% level of confidence. […]

Assay [2] concerns Williams 82. The description is as above.
Description: as §1, §2

In assay [3] the test system is Mutant 1-184A. Described as above.
Description: as §1, §2

Assay [4] concerns mutant W20. The assay is described as above.
Description: as §1, §2

Assay [5] relates to mutant line W20. Kind of assay: Test B postemergence cross resistance test. The note with it: Glycine max, post-emergence. Put shortly: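 Soybean mutant lines and Williams 82 sprayed postemergence at the second trifoliolate stage with ALS inhibitors (sulfonylureas, imidazolinones), each at two rates. Injury rated two to three times per pot over three weeks in the greenhouse and averaged; ANOVA per herbicide, Fisher's LSD at 95%.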

Assay [6] relates to mutant line W23. The assay can be described thus: Test B postemergence cross resistance test. The note with it: Glycine max, post-emergence. In a few lines:
(§3)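 Injury ratings (2–3 per pot across 3 weeks, averaged per pot) after postemergence spraying at second-trifoliolate stage; Williams 82 as comparator. Low rate chosen to injure but not kill Williams 82, high rate to severely injure or kill it. ANOVA per herbicide; Fisher's LSD, 95%.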

Assay [7] concerns Williams 82. The assay can be described thus: Test B postemergence cross resistance test. The note with it: Glycine max, post-emergence; for soybean crop injury at 2 g/ha: Wm 82, 2 g/ha postemergence. In a few lines:
as §3

For assay [8], the system named is mutant line W28. The assay can be described thus: Test B postemergence cross resistance test. The note with it: Glycine max, post-emergence; for mean % injury to soybean at 2 g/ha: W28, 2 g/ha postemergence. In a few lines: as §3
The subject of assay [9] is mutant line W17. The assay can be described thus: Test B postemergence cross resistance test. The following applies: Glycine max, post-emergence; for soybean crop injury (%) at 2 g/ha: W17, 2 g/ha postemergence. Put shortly: as §3
The test system of assay [10] is mutant line W19. Kind of assay: Test B postemergence cross resistance test. The following applies: Glycine max, post-emergence; for percent soybean crop injury at 2 g/ha: W19, 2 g/ha postemergence. Put shortly: as §3
Assay [11] deals with mutant line W4. The assay can be described thus: Test B postemergence cross resistance test. The note with it: Glycine max, post-emergence; for % crop injury at 2 g/ha: W4, 2 g/ha postemergence. Put shortly: as §3
Assay [12] relates to W4-4 M3 family. The assay can be described thus: Seed soak test with Compound 8. The following applies: W4-4 M3, seeds soaked 16 hours in 2 ppm solution, within two weeks of planting. How it is done: (§4) The original W4-4 M2 plant was allowed to self pollinate, mature, and produced a family of M3 seeds. An M3 progeny test was then conducted to determine if the new resistance phenotype was heritable and if the M3 family was true-breeding or segregating for the new resistance trait. The M3 progeny of W4-4 were screened for resistance with the same seed soak technique used to select the original W4-4 M2 plant. Twenty seeds each of the W4-4 M3 family, W20 line, and Williams line were soaked for 16 hours in a solution of 2 ppm of Compound 8. Twenty additional seeds of Williams were soaked for 16 hours in plain tap water as a control treatment. Treated seeds were then washed for two minutes in running water. Each seed was then planted in a separate pot for ease of observation.

Assay [13] concerns Williams. Kind of assay: Seed soak test with Compound 8. The following applies: seeds soaked 16 hours in 2 ppm solution, within two weeks of planting. How it is done: as §4
For assay [14], the system named is Mutant W4-4. Kind of assay: Postemergence herbicide spray test of W4-4 (Table VII-A). The following applies: two weeks after treatment. In a few lines: (§5)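 Soybean lines grown in 10 cm pots to second-trifoliolate stage, then postemergence herbicide-sprayed, two replicates; controls got carrier only (water with 0.25% X77). Percent injury rated at two weeks; means and SE by per-herbicide ANOVA, line differences tested by Fisher's LSD at 95% confidence.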

In assay [15] the test system is mutant W20. Described as above. The following applies: two weeks after treatment. In a few lines:
as §5

The subject of assay [16] is W20. The assay can be described thus: Seed soak test with Compound 8. The note with it: W20, seeds soaked 16 hours in 2 ppm solution. How it is done: The second screening protocol was carried out as follows: samples of seed from W20 were tested for preemergence tolerance to Compound 8 by soaking seeds in a 2.0 ppm buffered solution of Compound 8 for 16 hours, rinsing, and planting in flats in a greenhouse.
as §4

“Also recorded” adds a separate entry of the source.

In the case of `COc1nc(C)nc(NC(=O)NS(=O)(=O)c2ccccc2Cl)n1` [Compound 1, 2-chloro-N-[[(4-methoxy-6-methyl-1,3,5-triazin-2-yl)amino]carbonyl]benzenesulfonamide], the mean % injury in assay [1] (W19, 8 g/ha postemergence) is recorded as 12%; in [2] (WM 82, 8 g/ha postemergence) it was 97%; in [3] (8 g/ha postemergence) it was 97%; in assay [4] (W20, 8 g/ha postemergence) it was 13%. Further, the percent crop injury at 8 g/ha in assay [5] (W20, 8 g/ha postemergence) is 0%. In [6] (W23, 8 g/ha postemergence), this compound had a percent soybean injury at 8 g/ha of 0%. The same compound gave a soybean crop injury at 2 g/ha in [7] of 98%. Further, the soybean crop injury at 8 g/ha in assay [7] (Wm 82, 8 g/ha postemergence) amounted to 100%. Moreover, the mean % injury to soybean at 2 g/ha in assay [8] came to 0%. For the same compound, the mean % injury to soybean at 8 g/ha in assay [8] (W28, 8 g/ha postemergence) amounted to 0%. The same compound yielded a soybean crop injury (%) at 2 g/ha in assay [9] of 0%. The soybean crop injury (%) at 8 g/ha in [9] (W17, 8 g/ha postemergence) is 0%. The compound further displayed a percent soybean crop injury at 2 g/ha in assay [10] of 0%. In addition, the percent soybean crop injury at 8 g/ha in assay [10] (W19, 8 g/ha postemergence) is 13%. Moreover, the % crop injury at 2 g/ha in assay [11] amounted to 0%. This compound showed a % crop injury at 8 g/ha in [11] (W4, 8 g/ha postemergence) of 0%.

On to `COC(=O)c1cccnc1S(=O)(=O)NC(=O)Nc1nc(OC)cc(OC)n1` [Compound 8, Methyl 2-[[[[(4,6-dimethoxy-2-pyrimidinyl)amino]carbonyl]amino]sulfonyl]-3-pyridinecarboxylate], for which the mean % injury in [1] (W19, 8 g/ha postemergence) turned out to be 84%; in assay [1] (W19, 32 g/ha postemergence), 95%; in [2] (WM 82, 8 g/ha postemergence), 95%; in assay [2] (WM 82, 32 g/ha postemergence), 95%; in assay [3] (8 g/ha postemergence), 93%; in [3] (32 g/ha postemergence) it was 92%. The mean % injury in assay [4] (W20, 8 g/ha postemergence) is given as 93%; in assay [4] (W20, 32 g/ha postemergence) it was 97%; in assay [14] (W4-4, 4 g/ha postemergence) it was 48%; in [14] (W4-4, 16 g/ha postemergence), 48%; in assay [14] (W4-4, 32 g/ha postemergence), 65%; in assay [15] (W20, 4 g/ha postemergence) it was 90%. The mean % injury in assay [15] (W20, 16 g/ha postemergence) is 93%; in [15] (W20, 32 g/ha postemergence), 95%. The “seedling development after seed soak” value in assay [12] was “had developed both unifoliolate and trifoliolate leaves”; in assay [13] it was “had not started to form true leaves”; in [16], “uniformly inhibit growth of W20 beyond the stage of emergence and cotyledon expansion; also recorded: had not started to form true leaves”. The compound further showed a percent crop injury at 0.5 g/ha in assay [5] (W20, 0.5 g/ha postemergence) of 19%. The percent crop injury at 2 g/ha in assay [5] (W20, 2 g/ha postemergence) was 89%. In addition, the percent soybean injury at 0.5 g/ha in assay [6] (W23, 0.5 g/ha postemergence) came to 21%. Further, the percent soybean injury at 2 g/ha in assay [6] (W23, 2 g/ha postemergence) turned out to be 70%. This compound also returned a soybean crop injury at 0.5 g/ha in assay [7] (Wm 82, 0.5 g/ha postemergence) of 93%. In [7], this compound returned a soybean crop injury at 2 g/ha of 98%. For the same compound, in assay [8] (W28, 0.5 g/ha postemergence), the mean % injury to soybean at 0.5 g/ha is 53%. This compound also displayed a mean % injury to soybean at 2 g/ha in assay [8] of 84%. For the same compound, in assay [9] (W17, 0.5 g/ha postemergence), the soybean crop injury (%) at 0.5 g/ha came to 26%. The soybean crop injury (%) at 2 g/ha in assay [9] turned out to be 83%. Further, in [10] (W19, 0.5 g/ha postemergence), the percent soybean crop injury at 0.5 g/ha came to 29%. Also, the percent soybean crop injury at 2 g/ha in assay [10] came out at 85%. The % crop injury at 0.5 g/ha in [11] (W4, 0.5 g/ha postemergence) was determined as 39%. In addition, in assay [11], the % crop injury at 2 g/ha was found to be 81%.
